These are literature values, as cited in paper PMC11865978, “Cellular Activity of CQWW Nullomer-Derived Peptides” (ACS Omega, 2025).

The test system of data set [1] is normal cell lines and cancer cell lines. The following applies: cited from earlier work. From the text: (§1) Closely related to nullomer peptides, rarely observed amino acid stretches have also been studied by Capone et al., who assert that the minimal sufficient antigenic determinants of a protein could be encoded in just five rarely seen amino acids.[20] Complementing this, Patel et al. noted that these rare sequences could be used to enhance antigen-specific immune responses when dosed alongside adjuvant vaccines.[21] It was also noted by Koulouras et al. that human viruses rarely share human nullomers, facilitating host mimicry and immune evasion,[22] an interesting example of this being highligh ...

For a further data set, the system named is NCI-60 panel. To be noted: 60 cell lines from human cancers of nine organs; cited from earlier work.
Excerpt: as §1

For data set [2], the system named is triple-negative breast cancer mouse model. The following applies: cited from earlier work.
Excerpt: as §1

For the substance “WCMNW [permutation of pentamer nullomer NWMWC, Alileche et al]”, the mitochondrial impairment result in data set [1] was “caused mitochondrial impairment in both normal cell lines and cancer cell lines”. In the data set on NCI-60 panel, the “lethal effect on NCI-60 panel” value was “lethal to a high fraction of oncogenic cell lines”. Moreover, the “gene expression by transcriptomics in triple-negative breast cancer mouse model” value in data set [2] is reported as “downregulation of key genes involved in the mitochondrial TCA cycle”.
